Earlier results in patent publication US7855206B2, “Tricyclic heteroaromatic compounds as dipeptidyl peptidase-IV inhibitors for the treatment or prevention of diabetes” (Merck Sharp & Dohme Corp., priority 2006, dated 2010).

Key:
[1] = system: cardiac allograft in rats; settings: doubled from day 7
[2] = system: hematopoiesis in mouse; settings: cyclophosphamide-induced neutropenia
[3] = system: GRF degradation in plasma

In the case of `CC(C)N1CCC(c2ccccc2)(c2ccccc2)CC1` [Prodipine, Pro-Pro-diphenyl-phosphonate], the cardiac allograft survival [1] is listed as 14 day.

In the case of `CC(C)[C@H](N)C(=O)N1CCC[C@H]1B(O)O` [Val-Boro-Pro], the effect on hematopoiesis [2] is given as “stimulated hematopoiesis”.

For `CC[C@H](C)[C@H](N)C(=O)N1CCC[C@H]1C(=O)N[C@H](C(=O)O)[C@@H](C)CC` [diprotin A], the “effect on degradation of GRF to GRF[3-44]” value [3] is given as “prevented”.
